The values below come from patent US20260306460A1, “COMPOSITION FOR REMOVING AND INHIBITING SENESCENT CELLS, AND USES THEREOF” (LIFECEUTIX CO., LTD., priority 2023, published 2026).

Molecules are shown by their SMILES. *1 amine or outer side, *2 acyl side, *3 side chain or, on linkers, in order; H or OH if unused. Where a SMILES comes first, the peptide text is derived from it. Bridges are numbered along the chain shown (N, C = ends). [ ]: non-standard residue; d: D form. The star is where a group is joined. X1 = CC[C@H](C)[C@@H](N[*:1])[C@@H](O)CC(=O)O[C@H](C(=O)[C@H](C)C(=O)[*:2])C(C)C; NMeY = CN[C@@H](Cc1ccc(O)cc1)C(=O)O; dNMeL = CN[C@H](CC(C)C)C(=O)O; Pyruvoyl = CC(=O)C(=O)*

For one experiment, the system named is senescent cells. Kind of experiment: Viability of senescent cells (CellTiter-Glo), Example 17, Table 13. To be noted: Homo sapiens, read-out: Survival (%). (In general: ATP-based viability assays read luminescence as a measure of living cells.)
A further experiment deals with senescent A549 cells. Kind of experiment: Viability of senescent A549 cells (CellTiter-Glo), Example 18, Table 15. Conditions: Homo sapiens, A549, read-out: Survival (%).

Protocol for senescent A549 cells: Senescence-induced cancer cells treated with doxorubicin were treated with the test compound at designated concentrations, and cell viability was measured using the CellTiter-Glo Luminescent Cell Viability Assay (Promega).
Protocol for senescent cells: Cells induced to undergo senescence by doxorubicin treatment were treated with test compound at designated concentrations and measured using the CellTiter-Glo Luminescent Cell Viability Assay (Promega).

Turning to `CCc1ccc(CCOc2ccc(CC3SC(=O)NC3=O)cc2)nc1` (centres unmarked) [LX-9422, Pioglitazone], in the experiment on senescent cells, the viability at 1.1 µM is 94.7%, the viability at 10 µM was 56.2% and the viability at 30 µM turned out to be 6.7%. For the same compound, in the experiment with senescent A549 cells, the viability at 1.1 µM was found to be 104%, the viability at 10 µM came out at 62.8% and the viability at 30 µM was 15.8%.

On to `CC[C@H](C)[C@H]1NC(=O)[C@@H](NC(=O)[C@@H](CC(C)C)N(C)C(=O)[C@@H]2CCCN2C(=O)C(C)=O)[C@@H](C)OC(=O)[C@H](Cc2ccc(OC)cc2)N(C)C(=O)[C@@H]2CCCN2C(=O)[C@H](CC(C)C)NC(=O)[C@@H](C)C(=O)[C@H](C(C)C)OC(=O)C[C@@H]1O` [LX-6212, Plitidepsin] (Pyruvoyl-P[dNMeL]T[X1]LP[NMeY](Me); ester 3-C), for which, in the experiment with senescent cells, the viability at 1.1 µM was determined as 52.3%. Further, in the experiment with senescent A549 cells, the viability at 1.1 µM was 75.7% and the viability at 10 µM turned out to be 0.9%.

In the case of `COc1ccccc1OCC(O)CN1CCN(CC(=O)Nc2c(C)cccc2C)CC1` (centres unmarked) [LX-9565, Ranolazine], in the experiment with senescent cells, the viability at 1.1 µM is 78.9%, the viability at 10 µM came to 52.3% and the viability at 30 µM was found to be 6.1%. Besides, in the experiment with senescent A549 cells, the viability at 1.1 µM was found to be 97%, the viability at 10 µM came to 67.3%, the viability at 30 µM is 34.1% and the viability at 90 µM was 3.6%.

As to `COc1ccc(C[C@@H](C)[C@@H](C)Cc2ccc(OC)c(OC)c2)cc1OC` [LX-7122, Terameprocol], in the experiment with senescent cells, the viability at 1.1 µM turned out to be 109%, the viability at 10 µM was 94.4% and the viability at 30 µM was found to be 39.3%. For the same compound, in the experiment on senescent A549 cells, the viability at 1.1 µM was found to be 118%, the viability at 10 µM was 71.3% and the viability at 30 µM is 15.7%.

`C#Cc1nc(C(=O)N2[C@@H](CCCC)Cc3cc(C=C)ccc3[C@@H]2c2ccc(NC34CC5CC(CC(C5)C3)C4)cc2)cs1` [LX-5362]: the viability at 1.1 µM came to 42.5% with senescent cells and 61.8% in the experiment on senescent A549 cells.

As for `CS(=O)(=O)c1ccc(Oc2cc(F)cc(C#N)c2)c2c1[C@H](O)[C@H](F)[C@@H]2F` [LX-7451, Belzutifan], in the experiment on senescent cells, the viability at 1.1 µM came out at 105% and the viability at 10 µM came out at 39.2%. Also, in the experiment on senescent A549 cells, the viability at 1.1 µM amounted to 100%, the viability at 10 µM was 68.7% and the viability at 30 µM was determined as 10.7%.

Consider `Cn1cc(C2=C(c3cn(C4CCN(Cc5ccccn5)CC4)c4ccccc34)C(=O)NC2=O)c2ccccc21` [LX-7135, Enzastaurin], for which, in the experiment with senescent cells, the viability at 1.1 µM came out at 75.7%. Also, in the experiment on senescent A549 cells, the viability at 1.1 µM was 94.7% and the viability at 10 µM is 5.7%.

On to `COc1ccc(Cl)cc1C(=O)NCCc1ccc(S(=O)(=O)NC(=O)NC2CCCCC2)cc1` [LX-9335, glyburide], for which, in the experiment on senescent cells, the viability at 1.1 µM was 85.2%, the viability at 10 µM was 56.3% and the viability at 30 µM amounted to 12.2%. Besides, in the experiment with senescent A549 cells, the viability at 1.1 µM came out at 90.2%, the viability at 10 µM is 60.8% and the viability at 30 µM was 13.8%.

For `Cc1cccc2c1NC(=O)[C@@H](NC(=O)[C@H](CCC(F)(F)F)[C@H](CCC(F)(F)F)C(N)=O)N=C2c1cccc(F)c1` [LX-6514], in the experiment on senescent cells, the viability at 1.1 µM came out at 97.2%, the viability at 10 µM came out at 63.3% and the viability at 30 µM is 2.7%. Moreover, in the experiment on senescent A549 cells, the viability at 1.1 µM was found to be 107%, the viability at 10 µM amounted to 51.2% and the viability at 30 µM worked out at 0.2%.

On to `CCN(CCCOc1ccc2c(Nc3cc(CC(=O)Nc4cccc(F)c4)n[nH]3)ncnc2c1)CCOP(=O)(O)O` [LX-6205, Barasertib], for which the viability at 1.1 µM in the experiment with senescent cells came out at 3.8%; with senescent A549 cells, 57.4%.

On to `C[C@H]1Oc2cc(cnc2N)-c2c(nn(C)c2C#N)CN(C)C(=O)c2ccc(F)cc21` [LX-5449, Lorlatinib], for which, in the experiment with senescent cells, the viability at 1.1 µM was determined as 89.1%, the viability at 10 µM was determined as 44.1% and the viability at 30 µM came to 8.7%. For the same compound, in the experiment on senescent A549 cells, the viability at 1.1 µM was determined as 91.3%, the viability at 10 µM worked out at 44.3% and the viability at 30 µM is 2.4%.

For `NC(=O)c1ccc(-c2cc3c(NC4CCS(=O)(=O)CC4)cccc3n2CC(F)(F)F)cc1` [LX-5904], in the experiment with senescent cells, the viability at 1.1 µM is 103%, the viability at 10 µM stood at 25.9% and the viability at 30 µM is 2.2%. For the same compound, in the experiment with senescent A549 cells, the viability at 1.1 µM amounted to 95.4%, the viability at 10 µM was 45.2% and the viability at 30 µM turned out to be 10.9%.

`COc1ccc(CN2C3CC2CN(c2ccc(-c4cc(OCC(C)(C)O)cn5ncc(C#N)c45)cn2)C3)cn1` [LX-6988, Selpercatinib]: in the experiment with senescent cells, the viability at 1.1 µM stood at 93.5%, the viability at 10 µM was 53.7% and the viability at 30 µM stood at 3.7%. In the experiment on senescent A549 cells, the viability at 1.1 µM amounted to 98.2%, the viability at 10 µM is 46.3% and the viability at 30 µM was determined as 5.7%.

As for `O=c1sn(-c2cccc3ccccc23)c(=O)n1Cc1ccccc1` [LX-7121, Tideglusib], in the experiment on senescent cells, the viability at 1.1 µM was 94.7%, the viability at 10 µM was found to be 57.9% and the viability at 30 µM came out at 3.9%. In the experiment with senescent A549 cells, the viability at 1.1 µM is 76.5%, the viability at 10 µM amounted to 52.4% and the viability at 30 µM is 12.8%.

Take `CN1CCCC1` [LX-9425, N-methyl pyrrolidine]: in the experiment on senescent cells, the viability at 1.1 µM is 102%, the viability at 10 µM amounted to 97.5% and the viability at 30 µM came to 66.8%. Further, in the experiment on senescent A549 cells, the viability at 1.1 µM turned out to be 97.5%, the viability at 10 µM amounted to 100% and the viability at 30 µM is 68.2%.

For the compound `CN(C)C[C@@H]1CCn2cc(c3ccccc32)C2=C(C(=O)NC2=O)c2cn(c3ccccc23)CCO1` [LX-9339, Ruboxistaurin], the viability at 1.1 µM with senescent cells worked out at 55.6%; with senescent A549 cells, 49.2%.

`Nc1ncn([C@H]2C[C@@H](O)[C@@H](CO)S2)c(=O)n1` [LX-7288, 4′-thio-5-aza-2′-deoxycytidine]: the viability at 1.1 µM with senescent cells is 41.8%; in the experiment with senescent A549 cells, 48.3%.

As for `CCOC(=O)C1=CCCC[C@H]1S(=O)(=O)Nc1ccc(F)cc1Cl` [LX-9137, Resatorvid], in the experiment with senescent cells, the viability at 1.1 µM came out at 90.5%, the viability at 10 µM was determined as 43.8% and the viability at 30 µM amounted to 14.6%. Moreover, in the experiment with senescent A549 cells, the viability at 1.1 µM is 91.8%, the viability at 10 µM came out at 37.2% and the viability at 30 µM stood at 8.8%.

As to `CC(C)(CCCCCC(O)CCCCCC(C)(C)C(=O)O)C(=O)O` [LX-9602, Bempedoic acid], in the experiment on senescent cells, the viability at 1.1 µM came to 113%, the viability at 10 µM was 102%, the viability at 30 µM stood at 92.2% and the viability at 90 µM was 11.1%. In the experiment with senescent A549 cells, the viability at 1.1 µM came out at 101%, the viability at 10 µM stood at 96.4%, the viability at 30 µM was 75.4% and the viability at 90 µM was determined as 3.8%.

Turning to `C[C@@]12C[C@@]3(O)O[C@@H](O1)[C@]1(COC(=O)c4ccccc4)[C@H]3C[C@@]12O[C@@H]1O[C@H](CO)[C@@H](O)[C@H](O)[C@H]1O` [LX-6804, Paeoniflorin], in the experiment with senescent cells, the viability at 1.1 µM was 87.5% and the viability at 10 µM came to 28.5%. In addition, in the experiment with senescent A549 cells, the viability at 1.1 µM came to 78.8%, the viability at 10 µM is 40.8% and the viability at 30 µM is 8.4%.

As for `CCNCC[C@H](O)CNCCCCNC[C@@H](O)CCNCC` [LX-6516, Ivospemin], in the experiment with senescent cells, the viability at 1.1 µM turned out to be 93.3%, the viability at 10 µM is 71.1% and the viability at 30 µM was 31.8%. In the experiment with senescent A549 cells, the viability at 1.1 µM was 91.7%, the viability at 10 µM came out at 79.6% and the viability at 30 µM is 27.6%.

On to `Cc1ccccc1CN1C(=O)C2=C(CCN(Cc3ccccc3)C2)N2CCN=C12` [LX-7261, Dordaviprone], for which the figures for the viability at 1.1 µM in the experiment on senescent cells and with senescent A549 cells were 63.7% and 52.4%, respectively.

As for `NS(=O)(=O)OC[C@@H]1C[C@@H](n2ccc3c(N[C@H]4CCc5ccccc54)ncnc32)C[C@@H]1O` [LX-6202, Pevonedistat], the viability at 1.1 µM with senescent cells was 1.5%; in the experiment on senescent A549 cells it was 53.3%.

Regarding `NS(=O)(=O)NCCNc1nonc1C(=NO)Nc1ccc(F)c(Br)c1` [LX-8804, Epacadostat], in the experiment with senescent cells, the viability at 1.1 µM came to 54.5%. Besides, in the experiment on senescent A549 cells, the viability at 1.1 µM is 71.5% and the viability at 10 µM came to 2.1%.

In the case of `C=CC[C@@H]1/C=C(\C)C[C@H](C)C[C@H](OC)[C@H]2O[C@@](O)(C(=O)C(=O)N3CCCC[C@H]3C(=O)O[C@H](/C(C)=C/[C@@H]3CC[C@@H](O)[C@H](OC)C3)[C@H](C)[C@@H](O)CC1=O)[C@H](C)C[C@@H]2OC` [LX-9314, Tacrolimus], in the experiment with senescent cells, the viability at 1.1 µM is 84.7%, the viability at 10 µM is 69.2% and the viability at 30 µM is 35.3%. In the experiment on senescent A549 cells, the viability at 1.1 µM came out at 92.9%, the viability at 10 µM is 57.1% and the viability at 30 µM came to 14.7%.

As for `C#CCC(Cc1cnc2nc(N)nc(N)c2n1)c1ccc(C(=O)N[C@@H](CCC(=O)O)C(=O)O)cc1` (some centres unmarked) [LX-7405, Pralatrexate], in the experiment with senescent cells, the viability at 1.1 µM is 100%, the viability at 10 µM is 79% and the viability at 30 µM was 40.6%. In the experiment with senescent A549 cells, the viability at 1.1 µM is 94.7%, the viability at 10 µM was determined as 78.4% and the viability at 30 µM was found to be 12.1%.

As for `COc1ccc(F)cc1C(=O)NCc1ccc(-c2nn([C@@H](C)C(F)(F)F)c(N)c2C(N)=O)cc1` [LX-6981, Pirtobrutinib], the viability at 1.1 µM stood at 0.2% in the experiment on senescent cells and 43.1% with senescent A549 cells.

`CCCCCCCC/C(=C\CCCCCCCC(=O)O)[N+](=O)[O-]` [LX-7111, 10-Nitrooleic acid]: in the experiment on senescent cells, the viability at 1.1 µM was found to be 78.1% and the viability at 10 µM is 22%. In the experiment on senescent A549 cells, the viability at 1.1 µM was 79.2%, the viability at 10 µM came out at 43.7% and the viability at 30 µM worked out at 0.8%.

In the case of `C=C(C#N)CNc1c(OC)ccc2ccc(-c3ccc(S(C)(=O)=O)cn3)cc12` [LX-5906], in the experiment with senescent cells, the viability at 1.1 µM worked out at 97.2%, the viability at 10 µM was determined as 30.7% and the viability at 30 µM was determined as 0.4%. In the experiment with senescent A549 cells, the viability at 1.1 µM amounted to 98.7%, the viability at 10 µM turned out to be 41.5% and the viability at 30 µM amounted to 5.9%.
